Reference: ChEMBL document CHEMBL3244272, “Folate antagonists. 15. 2,3-Diamino-6-(2-naphthylsulfonyl)quinazoline and related 2,4-diamino-6-[(phenyl and naphthyl)sulfinyl and sulfonyl]quinazolines, a potent new class of antimetabolites with phenomenal antimalarial activity” (J Med Chem, 1979)
Converted amounts (≈) assume the structure as drawn. The source made the active and inactive calls. No cut-off for these calls is given here.

Assays:
[1] = tested on: Enterococcus faecalis; assay: Antibacterial activity against Streptococcus faecalis MGH-2 assessed as growth inhibition; format: functional
[2] = tested on: Staphylococcus aureus; assay: Antibacterial activity against Staphylococcus aureus UC-76 assessed as growth inhibition; format: functional
[3] = tested on: Staphylococcus aureus; assay: Antibacterial activity against Staphylococcus aureus S18713 assessed as growth inhibition; format: functional
[4] = tested on: Pseudomonas aeruginosa; assay: Antibacterial activity against Pseudomonas aeruginosa 28 assessed as growth inhibition; format: functional
[5] = tested on: Escherichia coli; assay: Antibacterial activity against Escherichia coli Vogel assessed as growth inhibition; format: functional
[6] = tested on: Shigella sonnei; assay: Antibacterial activity against Shigella sonnei C-10 assessed as growth inhibition; format: functional
[7] = tested on: Mycobacterium tuberculosis; assay: Antibacterial activity against Mycobacterium tuberculosis H37Rv assessed as growth inhibition; format: functional
[8] = tested on: Plasmodium berghei; assay: Antimalarial activity against trophozoite-induced Plasmodium berghei infected in sc dosed mouse assessed as minimum curative dose; format: functional
[9] = tested on: Plasmodium berghei; assay: Antimalarial activity against trophozoite-induced Plasmodium berghei infected in mouse assessed as change in mean survival time at 160 mg/kg, sc single dose after 72 hrs of infection; format: functional; details: route subcutaneous
[10] = tested on: Plasmodium berghei; assay: Antimalarial activity against trophozoite-induced Plasmodium berghei infected in mouse assessed as change in mean survival time at 80 mg/kg, sc single dose after 72 hrs of infection; format: functional; details: route subcutaneous
[11] = tested on: Plasmodium berghei; assay: Antimalarial activity against trophozoite-induced Plasmodium berghei infected in mouse assessed as change in mean survival time at 40 mg/kg, sc single dose after 72 hrs of infection; format: functional; details: route subcutaneous
[12] = tested on: Plasmodium berghei; assay: Antimalarial activity against trophozoite-induced Plasmodium berghei infected in mouse assessed as change in mean survival time at 20 mg/kg, sc single dose after 72 hrs of infection; format: functional; details: route subcutaneous
[13] = tested on: Plasmodium berghei; assay: Antimalarial activity against trophozoite-induced Plasmodium berghei infected in mouse assessed as change in mean survival time at 10 mg/kg, sc single dose after 72 hrs of infection; format: functional; details: route subcutaneous
[14] = tested on: Plasmodium gallinaceum; assay: Antimalarial activity against trophozoite-induced Plasmodium gallinaceum infected in chick assessed as mean survival time at 120 mg/kg, sc single dose (reference value: 4 days); format: functional; details: route subcutaneous
[15] = tested on: Plasmodium gallinaceum; assay: Antimalarial activity against trophozoite-induced Plasmodium gallinaceum infected in chick assessed as cured at 120 mg/kg, sc single dose; format: functional, organism-based; set-up: dose 120 mg/kg
[16] = tested on: Gallus gallus; assay: Toxicity in trophozoite-induced Plasmodium gallinaceum infected in chick assessed as death at 120 mg/kg, sc single dose measured within 48 hrs; format: organism-based; set-up: dose 120 mg/kg, route subcutaneous; details: chicken, in vivo
[17] = tested on: Plasmodium gallinaceum; assay: Antimalarial activity against sporozoite-induced Plasmodium gallinaceum infected in chick assessed as change in cured at 60 mg/kg, sc single dose; format: functional; details: route subcutaneous
[18] = tested on: Plasmodium gallinaceum; assay: Antimalarial activity against sporozoite-induced Plasmodium gallinaceum infected in chick assessed as change in cured at 30 mg/kg, sc single dose; format: functional; details: route subcutaneous
[19] = tested on: Plasmodium gallinaceum; assay: Antimalarial activity against sporozoite-induced Plasmodium gallinaceum infected in chick assessed as change in cured at 15 mg/kg, sc single dose; format: functional; details: route subcutaneous
[20] = tested on: Plasmodium gallinaceum; assay: Antimalarial activity against cycloguanil-resistant Plasmodium gallinaceum infected in mouse assessed as dose required to suppress parasitemia by 90% compound treated through gavage for 3 days; format: functional
[21] = tested on: Plasmodium gallinaceum; assay: Antimalarial activity against cycloguanil-resistant Plasmodium gallinaceum infected in mouse assessed as dose required to suppress parasitemia by 90% compound treated through gavage for 3 days relative to parent strain; format: functional
[22] = tested on: Plasmodium berghei; assay: Antimalarial activity against trophozoite-induced Plasmodium berghei infected in mouse assessed as change in mean survival time at 5 mg/kg, sc single dose after 72 hrs of infection; format: functional; details: route subcutaneous
[23] = tested on: Plasmodium berghei; assay: Antimalarial activity against trophozoite-induced Plasmodium berghei infected in mouse assessed as change in mean survival time at 2.5 mg/kg, sc single dose after 72 hrs of infection; format: functional; details: route subcutaneous
[24] = tested on: Plasmodium berghei; assay: Antimalarial activity against trophozoite-induced Plasmodium berghei infected in mouse assessed as change in mean survival time at 1.25 mg/kg, sc single dose after 72 hrs of infection; format: functional; details: route subcutaneous
[25] = tested on: Plasmodium falciparum; assay: Antimalarial activity against chloroquine-sensitive, pyrimethamine-resistant Plasmodium falciparum Malayan Camp CH/Q infected in Aotus monkey assessed as dose required to >50% cures compound treated for 7 days; format: functional
[26] = tested on: Plasmodium falciparum; assay: Antimalarial activity against chloroquine-resistant, pyrimethamine-sensitive Plasmodium falciparum Vietnam Oak Knoll in Aotus monkey assessed as dose required to >50% cures compound treated for 7 days; format: functional
[27] = tested on: Plasmodium gallinaceum; assay: Antimalarial activity against sporozoite-induced Plasmodium gallinaceum infected in chick assessed as change in cured at 7.5 mg/kg, sc single dose; format: functional; details: route subcutaneous

| SMILES | MIC [1] [µg/mL] | MIC [2] [µg/mL] | MIC [3] [µg/mL] | MIC [4] [µg/mL] | MIC [5] [µg/mL] | MIC [6] [µg/mL] | MCD [8] [mg/kg] | MST [11] [days] | MST [12] [days] | MST [13] [days] | Activity [20] [mg/kg] | fold change (FC) [21] | MST [22] [days] | MST [23] [days] | MST [24] [days] | other results |
| --- | --- | --- | --- | --- | --- | --- | --- | --- | --- | --- | --- | --- | --- | --- | --- | --- |
| Nc1nc(N)c2cc([S+]([O-])c3c(F)c(F)cc(F)c3F)ccc2n1 (centres undefined) | < 0.25 | 1 (≈ 2.81 µM) | 1.5 (≈ 4.21 µM) | > 25 | > 25 | > 25 | 80 | 10.7 | 0.9 | 0.5 |  |  |  |  |  | MIC [7]: 25 µg/mL (≈ 70.2 µM); MST [9]: 16.7 days; MST [10]: 13.9 days; MST [14]: 14.8 days; Activity [15]: Active; Activity [16]: Toxic |
| Nc1nc(N)c2cc([S+]([O-])c3ccc(F)cc3)ccc2n1 (centres undefined) |  |  |  |  |  |  | 20 | 11.5 | 8.9 | 5.5 |  |  |  |  |  | MST [10]: 16.9 days; MST [17]: 0.7 days; MST [18]: 0.7 days; MST [19]: 1 days |
| Nc1nc(N)c2cc(S(=O)(=O)c3ccc(F)cc3)ccc2n1 |  |  |  |  |  |  | 20 |  |  | 12.9 | 0.6 | 3 | 13.6 | 6.9 | 4.1 |  |
| CN(C)c1ccc(Sc2ccc3nc(N)nc(N)c3c2)cc1 |  |  |  |  |  |  |  |  |  |  | 0.9 | 0 |  |  |  | Activity [25]: 2.5 mg/kg; Activity [26]: 1.25 mg/kg |
| Nc1nc(N)c2cc([S+]([O-])c3cccc(C(F)(F)F)c3)ccc2n1 (centres undefined) | < 0.25 | < 0.25 | < 0.25 | > 25 | > 25 | > 25 | 40 |  | 21.4 | 12.7 |  |  | 9.1 | 4.1 | 1.1 | MST [27]: 6.4 days |
| Nc1nc(N)c2cc(Sc3ccc(Cl)c(Cl)c3)ccc2n1 |  |  |  |  |  |  |  |  |  |  | <0.4 | 0 |  |  |  |  |
| Nc1nc(N)c2cc(S(=O)(=O)c3ccc(Br)cc3)ccc2n1 | < 0.25 | < 0.25 | < 0.25 | > 25 | 2.5 (≈ 6.59 µM) | > 25 | 10 |  | 9.9 | 13.1 | <1.6 | <3 | 10.3 | 6.5 |  |  |
| Nc1nc(N)c2cc(Sc3ccc(Br)cc3)ccc2n1 |  |  |  |  |  |  |  |  |  |  | <1.6 | <4 |  |  |  |  |
| Nc1nc(N)c2cc(S(=O)(=O)c3cccc(-c4ccccc4)c3)ccc2n1 | < 0.25 | 1 (≈ 2.66 µM) | 1.5 (≈ 3.98 µM) | > 25 | > 25 | > 25 | 40 | 16.9 | 21.9 | 13.9 |  |  | 13.6 | 9.3 | 4.1 | MIC [7]: > 25 µg/mL; MST [18]: 0 days; MST [19]: 0 days; MST [27]: 2.4 days |
| COc1ccc([S+]([O-])c2ccc3nc(N)nc(N)c3c2)cc1 (centres undefined) |  |  |  |  |  |  | 20 | 10.5 | 2.7 | 0.7 |  |  |  |  |  | MST [9]: 25.9 days; MST [10]: 13.2 days; MST [14]: 24.2 days; Activity [15]: Active; Activity [16]: Toxic |
| Nc1nc(N)c2cc(S(=O)(=O)c3cccc(C(F)(F)F)c3)ccc2n1 | 0.25 (≈ 0.679 µM) | 1.5 (≈ 4.07 µM) | 2 (≈ 5.43 µM) | > 25 | > 25 | > 25 | 40 |  | 13.9 | 11.6 |  |  | 7.7 | 1.5 | 0.5 | Activity [25]: 1.56 mg/kg; Activity [26]: 0.39 mg/kg; MIC [7]: 25 µg/mL (≈ 67.9 µM) |
| Nc1nc(N)c2cc([S+]([O-])c3ccccc3)ccc2n1 (centres undefined) | < 0.25 | < 0.25 | < 0.25 | > 25 | 1.5 (≈ 5.28 µM) | 15 (≈ 52.8 µM) | 160 | 11.3 | 4.9 | 1.1 |  |  |  |  |  | MIC [7]: 20 µg/mL (≈ 70.3 µM); MST [10]: 15.9 days; MST [18]: 0 days; MST [19]: 0 days; MST [27]: 0 days |
| Nc1nc(N)c2cc(Sc3ccc4ccccc4c3)ccc2n1 |  |  |  |  |  |  |  |  |  |  | <1.6 | 0 |  |  |  | Activity [25]: 3.125 mg/kg; Activity [26]: 1.56 mg/kg |
| Nc1nc(N)c2cc([S+]([O-])c3ccc4ccccc4c3)ccc2n1 (centres undefined) | < 0.25 | < 0.25 | < 0.25 | > 25 | < 0.25 | 2.5 (≈ 7.48 µM) | 20 |  |  | 31.9 | 0.1 | 0 | 14.2 | 10.9 | 6.7 | Activity [25]: 0.78 mg/kg; Activity [26]: 0.39 mg/kg |
| Cc1c([S+]([O-])c2ccc3ccccc3c2)ccc2nc(N)nc(N)c12 (centres undefined) | < 0.25 | > 25 | > 25 | > 25 | > 25 | > 25 | 20 |  |  |  |  |  | 22.9 | 10.7 | 9.7 | MST [17]: 3.7 days; MST [18]: 3.7 days; MST [19]: 3.7 days; MST [27]: 3.7 days |
